According to patent US7723523B2, “Tetrahydropyridothiophenes” (4SC AG, priority 2004, dated 2010):

Experiments:
[1] = tested on: RKO colon adenocarcinoma cells (RKOp27) arrested by expression of ectopic p27Kip1; test: Alamar Blue cell viability assay on RKOp27 cells arrested by Ponasterone A-induced p27Kip1 (cell cycle specific mode of action); type: cell-based; details: Homo sapiens, RKOp27, 72 h, cells arrested by p27Kip1 induced with 10 μM Ponasterone A, 72 hours incubation, read-out: IC50 RKO p27 arrested
How it was run: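 Viability measured by Alamar Blue fluorescence (ex 544, em 590 nm) after 72 h, 37 °C compound exposure in quadruplicate, normalized to untreated cells as 100%. Cells were p27Kip1-arrested RKOp27, induced with 10 μM Ponasterone A at seeding; compound added 24 h later.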

[2] = tested on: RKO (RKOp27) human colon adenocarcinoma cells; test: Alamar Blue cell viability assay, anti-proliferative/cytotoxic activity on proliferating RKOp27 cells; type: cell-based; details: absence of Ponasterone A, 72 hours incubation, read-out: IC50 RKO p27 proliferating
How it was run: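 RKOp27 subclone of RKO cells, 4000/well in DMEM with 10% FCS, was treated 24 h after seeding with semi-log compound dilutions in quadruplicate for 72 h at 37 °C, 5% CO2. Alamar Blue fluorescence (ex 544/em 590 nm) was read as % viability of untreated cells, and IC50 was taken from concentration-effect curves.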

| SMILES | IC50 [1] [µM] | IC50 [2] [µM] |
| --- | --- | --- |
| N#Cc1c(NC(=O)/C=C/c2ccccc2)sc2c1CCN(C(=O)n1ccnc1)C2 [Example 53, (E)-N-[3-Cyano-6-(1-imidazol-1-yl-methanoyl)-4,5,6,7-tetrahydro-thieno[2,3-c]pyridin-2-yl]-3-phenyl-acrylamide] | ≥ 100 | ≤ 2 |
| N#Cc1c(NC(=O)/C=C/c2ccccc2)sc2c1CCN(C(=O)OCCCc1cccnc1)C2 [Example 125, 3-Cyano-2-((E)-3-phenyl-allanoylamino)-4,7-dihydro-5H-thieno[2,3-c]pyridine-6-carboxylic acid 3-pyridin-3-yl-propyl ester] | ≥ 100 | ≤ 2 |
| CCNC(=O)N1CCc2c(sc(NC(=O)/C=C/c3ccccc3)c2C#N)C1 [Example 37, 3-Cyano-2-((E)-phenyl-allanoylamino)-4,7-dihydro-5H-thieno[2,3-c]pyridine-6-carboxylic acid ethylamide] | > 100 | ≤ 2 |
| N#Cc1c(NC(=O)/C=C/c2ccccc2)sc2c1CCN(C(=O)OCCc1ccccn1)C2 [Example 116, 3-Cyano-2-((E)-3-phenyl-allanoylamino)-4,7-dihydro-5H-thieno[2,3-c]pyridine-6-carboxylic acid 2-pyridin-2-yl-ethyl ester] | ≥ 100 | ≤ 2 |
| CCOC(=O)N1CCc2c(sc(NC(=O)/C=C/c3cccnc3)c2C#N)C1 [Example 7, N-(6-Ethoxycarbonyl-3-cyano-4,5,6,7-tetrahydro-thieno[2,3-c]pyridin-2-yl)-3-pyridyl-acrylamide] | > 100 | ≤ 2 |
| CCOC(=O)N1CCc2c(sc(NC(=O)/C=C/c3sccc3C)c2C#N)C1 [Example 75, 3-Cyano-2-[(E)-3-(3-methyl-thiophen-2-yl)-allanoylamino]-4,7-dihydro-5H-thieno[2,3-c]pyridine-6-carboxylic acid ethyl ester] | ≥ 100 | ≤ 2 |
| CCOC(=O)N1CCc2c(sc(NC(=O)/C=C/c3ccc(CC)o3)c2C#N)C1 [Example 77, 3-Cyano-2-[(E)-3-(5-ethyl-furan-2-yl)-allanoylamino]-4,7-dihydro-5H-thieno[2,3-c]pyridine-6-carboxylic acid ethyl ester] | ≥ 50 | ≤ 0.5 |
| CCOC(=O)N1CCc2c(sc(NC(=O)/C=C/c3cccc(C)c3)c2C#N)C1 [Example 16, 3-Cyano-2-((E)-3-m-tolyl-allanoylamino)-4,7-dihydro-5H-thieno[2,3-c]pyridine-6-carboxylic acid ethyl ester] | > 100 | ≤ 2 |
| N#Cc1c(NC(=O)/C=C/c2ccccc2)sc2c1CCN(C(=O)OCCn1ccnc1)C2 [Example 136, 3-Cyano-2-((E)-3-phenyl-allanoylamino)-4,7-dihydro-5H-thieno[2,3-c]pyridine-6-carboxylic acid 2-imidazol-1-yl-ethyl ester] | ≥ 100 | ≤ 2 |
| CCOC(=O)N1CCc2c(sc(NC(=O)/C=C/c3ccccc3Cl)c2C#N)C1 [Example 4, N-(6-Ethoxycarbonyl-3-cyano-4,5,6,7-tetrahydro-thieno[2,3-c]pyridin-2-yl)-3-(2-chlorophenyl)-acrylamide] | > 100 | ≤ 2 |
| CCOC(=O)N1CCc2c(sc(NC(=O)/C=C/c3ccccc3C#N)c2C#N)C1 [Example 83, 3-Cyano-2-[(E)-3-(2-cyano-phenyl)-allanoylamino]-4,7-dihydro-5H-thieno[2,3-c]pyridine-6-carboxylic acid ethyl ester] | ≥ 100 | ≤ 2 |
| CCOC(=O)N1CCc2c(sc(NC(=O)/C=C/c3cccc([N+](=O)[O-])c3)c2C#N)C1 [Example 29, 3-Cyano-2-[(E)-3-(3-nitro-phenyl)-allanoylamino]-4,7-dihydro-5H-thieno[2,3-c]pyridine-6-carboxylic acid ethyl ester] | > 100 | ≤ 2 |
| CCOC(=O)N1CCc2c(sc(NC(=O)/C=C/c3ccccc3O)c2C#N)C1 [Example 95, 3-Cyano-2-[(E)-3-(2-hydroxy-phenyl)-allanoylamino]-4,7-dihydro-5H-thieno[2,3-c]pyridine-6-carboxylic acid ethyl ester] | ≥ 100 | ≤ 2 |
| CCOC(=O)N1CCc2c(sc(NC(=O)/C=C/c3c(F)cccc3F)c2C#N)C1 [Example 65, 3-Cyano-2-[(E)-3-(2,6-difluoro-phenyl)-allanoylamino]-4,7-dihydro-5H-thieno[2,3-c]pyridine-6-carboxylic acid ethyl ester] | ≥ 100 | ≤ 2 |

Now from value to compound, other results behind:

| IC50 [1] [µM] | SMILES | IC50 [2] [µM] |
| --- | --- | --- |
| ≥ 100 | COCC(=O)N1CCc2c(sc(NC(=O)/C=C/c3cccnc3)c2C#N)C1 [Example 194, (E)-N-[3-Cyano-6-(2-methoxy-ethanoyl)-4,5,6,7-tetrahydro-thieno[2,3-c]pyridin-2-yl]-3-pyridin-3-yl-acrylamide] | ≤ 2 |
| ≥ 100 | CCOc1ccccc1/C=C/C(=O)Nc1sc2c(c1C#N)CCN(C(=O)CCn1ccnc1)C2 [Example 224, (E)-N-[3-Cyano-6-(3-imidazol-1-yl-propanoyl)-4,5,6,7-tetrahydro-thieno[2,3-c]pyridin-2-yl]-3-(2-ethoxy-phenyl)-acrylamide] | ≤ 2 |
| ≥ 100 | CCOC(=O)CC(=O)N1CCc2c(sc(NC(=O)/C=C/c3ccccc3)c2C#N)C1 [Example 176, 3-[3-Cyano-2-((E)-3-phenyl-allanoylamino)-4,7-dihydro-5H-thieno[2,3-c]pyridin-6-yl]-3-oxo-propionic acid ethyl ester] | ≤ 2 |
| ≥ 100 | CCOC(=O)N1CCc2c(sc(NC(=O)/C=C/c3cccc4c3OCC4)c2C#N)C1 [Example 234, 3-Cyano-2-((E)-3-2,3-dihydro-benzofuran-7-yl-allanoylamino)-4,7-dihydro-5H-thieno[2,3-c]pyridine-6-carboxylic acid ethyl ester] | ≤ 2 |
| ≥ 100 | N#Cc1c(NC(=O)/C=C/c2cccnc2)sc2c1CCN(C(=O)Oc1ccccn1)C2 [Example 154, 3-Cyano-2-((E)-3-pyridin-3-yl-allanoylamino)-4,7-dihydro-5H-thieno[2,3-c]pyridine-6-carboxylic acid pyridin-2-yl ester] | ≤ 2 |
| ≥ 100 | COc1cccc(COC(=O)N2CCc3c(sc(NC(=O)/C=C/c4cccnc4)c3C#N)C2)c1 [Example 147, 3-Cyano-2-((E)-3-pyridin-3-yl-allanoylamino)-4,7-dihydro-5H-thieno[2,3-c]pyridine-6-carboxylic acid 3-methoxy-benzyl ester] | ≤ 2 |
| ≥ 100 | N#Cc1c(NC(=O)/C=C/c2cccnc2)sc2c1CCN(C(=O)CCc1nccs1)C2 [Example 198, (E)-N-[3-Cyano-6-(3-thiazol-2-yl-propanoyl)-4,5,6,7-tetrahydro-thieno[2,3-c]pyridin-2-yl]-3-pyridin-3-yl-acrylamide] | ≤ 2 |
| ≥ 100 | COCCOC(=O)N1CCc2c(sc(NC(=O)/C=C/c3ccccc3Cl)c2C#N)C1 [Example 142, 2-[(E)-3-(2-Chloro-phenyl)-allanoylamino]-3-cyano-4,7-dihydro-5H-thieno[2,3-c]pyridine-6-carboxylic acid 2-methoxy-ethyl ester] | ≤ 2 |
| ≥ 100 | COc1cccc(CCOC(=O)N2CCc3c(sc(NC(=O)/C=C/c4cccnc4)c3C#N)C2)c1 [Example 152, 3-Cyano-2-((E)-3-pyridin-3-yl-allanoylamino)-4,7-dihydro-5H-thieno[2,3-c]pyridine-6-carboxylic acid 2-(3-methoxy-phenyl)-ethyl ester] | ≤ 2 |
| ≥ 100 | N#Cc1c(NC(=O)/C=C/c2ccco2)sc2c1CCN(C(=O)Cc1ccccn1)C2 [Example 227, (E)-N-[3-Cyano-6-(2-pyridin-2-yl-ethanoyl)-4,5,6,7-tetrahydro-thieno[2,3-c]pyridin-2-yl]-3-furan-2-yl-acrylamide] | ≤ 2 |
| ≥ 100 | CCOc1ccccc1/C=C/C(=O)Nc1sc2c(c1C#N)CCN(C(=O)OCc1ccccn1)C2 [Example 236, 3-Cyano-2-[(E)-3-(2-ethoxy-phenyl)-allanoylamino]-4,7-dihydro-5H-thieno[2,3-c]pyridin-6-carboxylic acid pyridin-2-ylmethyl ester] | ≤ 2 |
| ≥ 100 | N#Cc1c(NC(=O)/C=C/c2cccnc2)sc2c1CCN(C(=O)OCCN1CCOCC1)C2 [Example 156, 3-Cyano-2-((E)-3-pyridin-3-yl-allanoylamino) 4,7-dihydro-5H-thieno[2,3-c]pyridine-6-carboxylic acid 2-morpholin-4-yl-ethyl ester] | ≤ 2 |
| ≥ 100 | N#Cc1c(NC(=O)/C=C/c2cccnc2)sc2c1CCN(C(=O)OCCc1cccnc1)C2 [Example 159, 3-Cyano-2-((E)-3-pyridin-3-yl-allanoylamino)-4,7-dihydro-5H-thieno[2,3-c]pyridine-6-carboxylic acid 2-pyridin-3-yl-ethyl ester] | ≤ 2 |
| ≥ 100 | COCCOCC(=O)N1CCc2c(sc(NC(=O)/C=C/c3ccccc3OC)c2C#N)C1 [Example 209, (E)-N-{3-Cyano-6-[2-(2-methoxy-ethoxy)-ethanoyl]-4,5,6,7-tetrahydro-thieno[2,3-c]pyridin-2-yl}-3-(2-methoxy-phenyl)-acrylamide] | ≤ 2 |
| ≥ 100 | N#Cc1c(NC(=O)/C=C/c2cccnc2)sc2c1CCN(C(=O)OCc1cccnc1)C2 [Example 150, 3-Cyano-2-((E)-3-pyridin-3-yl-allanoylamino)-4,7-dihydro-5H-thieno[2,3-c]pyridine-6-carboxylic acid pyridin-3-ylmethyl ester] | ≤ 2 |
